32 compounds from patent US6583309B1 (University of Medicine and Dentistry of New Jersey, priority 1999, dated 2003) can be followed below.

The structures appear in SMILES notation.

In the experiment the target is TAR RNA. The experiment is described as follows: In vitro binding of resin-bound compounds to TAR RNA (OD260 of unbound RNA). The following applies: in vitro assay; compounds of formula I on TentaGel beads incubated with TAR RNA overnight at 4° C. in TK buffer; read-out: Kd (nM), binding constants. Details: species or system HIV. In outline:
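Ten beads of TentaGel-bound compound in TK buffer were incubated overnight at 4 °C with T7-transcribed 29-residue TAR RNA ([…]). Unbound RNA in the supernatant was quantified by OD260. KD was calculated from equilibrium RNA concentrations assuming simple bimolecular binding.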
Turning to `NCCCCCCCN(CC(=O)N[C@@H](CCCCN)COC(N)=O)C(=O)CNCCCCN` [Compound DQ, Carbamic acid 6-amino-2-{2-[[2-(4-amino-butylamino)-acetyl]-(7-amino-heptyl)-amino]-acetylamino}-hexyl ester], the Kd was determined as 6140 nM.

Regarding `NCCCCCCCN(CC(=O)N[C@H](CCCCN)COC(N)=O)C(=O)CNCCCCN` [Compound BQ, Carbamic acid 6-amino-2-{2-[[2-(4-amino-butylamino)-acetyl]-(7-amino-heptyl)-amino]-acetylamino}-hexyl ester], the Kd was 235 nM.

With `NCCCCCCCNCC(=O)N(CCCCCN)CC(=O)N[C@@H](CCCCN)COC(N)=O` [Compound DG, Carbamic acid 6-amino-2-{2-[[2-(7-amino-heptylamino)-acetyl]-(5-amino-pentyl)-amino]-acetylamino}-hexyl ester], the Kd was determined as 235 nM.

On to `NCCCCNCC(=O)N(CCCCN)CC(=O)N[C@@H](CCCCN)COC(N)=O` [Compound CY, Carbamic acid 6-amino-2-(2-{(4-amino-butyl)-[2-(4-amino-butylamino)-acetyl]-amino}-acetylamino)-hexyl ester], for which the Kd was 523 nM.

Take `NCCCC[C@@H](N)COC(=O)N[C@@H](CCCCN)COC(=O)N[C@H](CCCCN)COC(N)=O` [Compound AK, Carbamic acid 6-amino-2-[6-amino-2-(2,6-diamino-hexyloxycarbonylamino)-hexyloxycarbonylamino]-hexyl ester]: the Kd was determined as 1720 nM.

As for `NCCCCCNCC(=O)N(CCCCCN)CC(=O)N[C@@H](CCCCN)COC(N)=O` [Compound DF, Carbamic acid 6-amino-2-(2-{(5-amino-pentyl)-[2-(5-amino-pentylamino)-acetyl]-amino}-acetylamino)-hexyl ester], the Kd was 31400 nM.

For `NCCCCCCCNCC(=O)N(CCCCN)CC(=O)N[C@@H](CCCCN)COC(N)=O` [Compound CX, Carbamic acid 6-amino-2-(2-{(4-amino-butyl)-[2-(7-amino-heptylamino)-acetyl]-amino}-acetylamino)-hexyl ester], the Kd is 256 nM.

Turning to `NCCCCCCCNCC(=O)N(CCCCN)CC(=O)N[C@H](CCCCN)COC(N)=O` [Compound AX, Carbamic acid 6-amino-2-(2-{(4-amino-butyl)-[2-(7-amino-heptylamino)-acetyl]-amino}-acetylamino)-hexyl ester], the Kd amounted to 165 nM.

On to `NCCCC[C@@H](COC(N)=O)NC(=O)OC[C@@H](CCCCN)NC(=O)[C@H](N)CCCCN` (stereo in doubt) [Compound CD, Carbamic acid 6-amino-2-[6-amino-2-(2,6-diamino-hexanoylamino)-hexyloxycarbonylamino]-hexyl ester], for which the Kd amounted to 567 nM.

With `NCCCCCN(CC(=O)N[C@H](CCCCN)COC(N)=O)C(=O)OC[C@H](N)CCCCN` (stereo in doubt) [Compound BC, Carbamic acid 6-amino-2-{2-[(5-amino-pentyl)-(2,6-diamino-hexyloxycarbonyl)-amino]-acetylamino}-hexyl ester], the dissociation constant (Kd) was determined as 183 nM.

Take `N=C(N)NCCC[C@H](N)COC(=O)N(CCCCN)CC(=O)N[C@H](CCCCN)COC(N)=O` [Compound AZ, Carbamic acid 6-amino-2-{2-[(4-amino-butyl)-(2-amino-5-guanidino-pentyloxycarbonyl)-amino]-acetylamino}-hexyl ester]: the Kd worked out at 147 nM.

For `NCCCCCCCNCC(=O)N[C@@H](CCCCN)C(=O)N[C@H](CCCCN)COC(N)=O` [Compound BY, Carbamic acid 6-amino-2-{6-amino-2-[2-(7-amino-heptylamino)-acetylamino]-hexanoylamino}-hexyl ester], the Kd was 183 nM.

Take `NCCCCCNCC(=O)N[C@@H](CCCCN)COC(=O)N[C@H](CCCCN)COC(N)=O` [Compound AN, Carbamic acid 6-amino-2-{6-amino-2-[2-(5-amino-pentylamino)-acetylamino]-hexyloxycarbonylamino}-hexyl ester]: the Kd is 183 nM.

In the case of `NCCCCNCC(=O)N[C@@H](CCCCN)COC(=O)N[C@@H](CCCCN)COC(N)=O` [Compound CP, Carbamic acid 6-amino-2-{6-amino-2-[2-(4-amino-butylamino)-acetylamino]-hexyloxycarbonylamino}-hexyl ester], the Kd is 678 nM.

Take `NCCCC[C@@H](N)COC(=O)N(CCCCN)CC(=O)N[C@H](CCCCN)COC(N)=O` [Compound AT, Carbamic acid 6-amino-2-{2-[(4-amino-butyl)-(2,6-diamino-hexyloxycarbonyl)-amino]-acetylamino}-hexyl ester]: the Kd was 165 nM.

Take `NCCCC[C@@H](COC(N)=O)NC(=O)OC[C@@H](CCCCN)NC(=O)[C@@H](N)CCCCN` [Compound CC, Carbamic acid 6-amino-2-[6-amino-2-(2,6-diamino-hexanoylamino)-hexyloxycarbonylamino]-hexyl ester]: the Kd is 567 nM.

As for `NCCCC[C@@H](COC(N)=O)NC(=O)OC[C@H](CCCCN)NC(=O)[C@@H](N)CCCCN` (stereo in doubt) [Compound CL, Carbamic acid 6-amino-2-[6-amino-2-(2,6-diamino-hexanoylamino)-hexyloxycarbonylamino]-hexyl ester], the Kd turned out to be 130 nM.

As to `NCCCCNCC(=O)N[C@H](CCCCN)COC(=O)N[C@@H](CCCCN)COC(N)=O` [Compound CG, Carbamic acid 6-amino-2-{6-amino-2-[2-(4-amino-butylamino)-acetylamino]-hexyloxycarbonylamino}-hexyl ester], the Kd came to 603 nM.

As to `NCCCC[C@@H](N)COC(=O)N(CCCCN)CC(=O)N[C@@H](CCCCN)COC(N)=O` [Compound CT, Carbamic acid 6-amino-2-{2-[(4-amino-butyl)-(2,6-diamino-hexyloxycarbonyl)-amino]-acetylamino}-hexyl ester], the equilibrium dissociation constant (Kd) amounted to 147 nM.

As to `NCCCCCN(CC(=O)N[C@H](CCCCN)COC(N)=O)C(=O)[C@@H](N)CCCCN` [Compound BD, Carbamic acid 6-amino-2-{2-[(5-amino-pentyl)-(2,6-diamino-hexanoyl)-amino]-acetylamino}-hexyl ester], the Kd came to 235 nM.

On to `NCCCCCNCC(=O)N[C@@H](CCCCN)COC(=O)N[C@@H](CCCCN)COC(N)=O` [Compound CN, Carbamic acid 6-amino-2-{6-amino-2-[2-(5-amino-pentylamino)-acetylamino]-hexyloxycarbonylamino}-hexyl ester], for which the Kd worked out at 235 nM.

On to `NCCCCCCCNCC(=O)N[C@@H](CCCCN)COC(=O)N[C@H](CCCCN)COC(N)=O` [Compound AO, Carbamic acid 6-amino-2-{6-amino-2-[2-(7-amino-heptylamino)-acetylamino]-hexyloxycarbonylamino}-hexyl ester], for which the Kd amounted to 120 nM.

In the case of `N=C(N)NCCC[C@H](N)COC(=O)N[C@@H](CCCCN)COC(=O)N[C@@H](CCCCN)COC(N)=O` [Compound CQ, Carbamic acid 6-amino-2-[6-amino-2-(2-amino-5-guanidino-pentyloxycarbonylamino)-hexyloxycarbonylamino]-hexyl ester], the Kd was determined as 2350 nM.

Regarding `NCCCCCCCN(CC(=O)N[C@H](CCCCN)COC(N)=O)C(=O)OC[C@@H](N)CCCCN` [Compound BK, Carbamic acid 6-amino-2-{2-[(7-amino-heptyl)-(2,6-diamino-hexyloxycarbonyl)-amino]-acetylamino}-hexyl ester], the Kd came out at 930 nM.

Turning to `NCCCCCN(CC(=O)N[C@H](CCCCN)COC(N)=O)C(=O)OC[C@H](N)CCC(N)=O` [Compound BJ, Carbamic acid 6-amino-2-{2-[(2-amino-4-carbamoyl-butoxycarbonyl)-(5-amino-pentyl)-amino]-acetylamino}-hexyl ester], the Kd is 202 nM.

On to `NCCCC[C@@H](N)COC(=O)N[C@H](CCCCN)COC(=O)N[C@H](CCCCN)COC(N)=O` [Compound AB, Carbamic acid 6-amino-2-[6-amino-2-(2,6-diamino-hexyloxycarbonylamino)-hexyloxycarbonylamino]-hexyl ester], for which the Kd amounted to 523 nM.

Turning to `NCCCC[C@H](N)COC(=O)N[C@H](CCCCN)COC(=O)N[C@@H](CCCCN)COC(N)=O` [Compound CA, Carbamic acid 6-amino-2-[6-amino-2-(2,6-diamino-hexyloxycarbonylamino)-hexyloxycarbonylamino]-hexyl ester], the Kd came to 460 nM.

With `NCCCCCN(CC(=O)N[C@@H](CCCCN)COC(N)=O)C(=O)OC[C@H](N)CCCCN` [Compound DC, Carbamic acid 6-amino-2-{2-[(5-amino-pentyl)-(2,6-diamino-hexyloxycarbonyl)-amino]-acetylamino}-hexyl ester], the Kd turned out to be 5110 nM.

`N=C(N)NCCC[C@H](N)COC(=O)N[C@@H](CCCCN)COC(=O)N[C@H](CCCCN)COC(N)=O` [Compound AQ, Carbamic acid 6-amino-2-[6-amino-2-(2-amino-5-guanidino-pentyloxycarbonylamino)-hexyloxycarbonylamino]-hexyl ester]: the Kd was found to be 2080 nM.

Regarding `NCCCC[C@@H](COC(N)=O)NC(=O)OC[C@H](CCCCN)NC(=O)[C@H](N)CCCCN` [Compound CM, Carbamic acid 6-amino-2-[6-amino-2-(2,6-diamino-hexanoylamino)-hexyloxycarbonylamino]-hexyl ester], the Kd amounted to 491 nM.

Consider `NCCCC[C@@H](N)COC(=O)N[C@@H](CCCCN)COC(=O)N[C@@H](CCCCN)COC(N)=O` [Compound CK, Carbamic acid 6-amino-2-[6-amino-2-(2,6-diamino-hexyloxycarbonylamino)-hexyloxycarbonylamino]-hexyl ester], for which the Kd was found to be 1110 nM.

With `N=C(N)NCCC[C@H](N)COC(=O)N(CCCCCN)CC(=O)N[C@@H](CCCCN)COC(N)=O` [Compound DI, Carbamic acid 6-amino-2-{2-[(2-amino-5-guanidino-pentyloxycarbonyl)-(5-amino-pentyl)-amino]-acetylamino}-hexyl ester], the Kd stood at 235 nM.
